Earlier results on one molecule are cited in patent US20230000758A1, “METHOD FOR PREVENTING SKIN AGING COMPRISING KOREAN MINT EXTRACT” (COSMAX NBT, INC., priority 2021, published 2023).

In the data set the test system is catalase. As to conditions: lipopolysaccharide-stimulated mouse lung tissues.

SMILES strings stand for the structures.

`COc1ccc(-c2cc(=O)c3c(O)cc(O[C@@H]4O[C@H](CO[C@@H]5O[C@@H](C)[C@H](O)[C@@H](O)[C@H]5O)[C@@H](O)[C@H](O)[C@H]4O)cc3o2)cc1` [linarin]: the “expression of the anti-oxidant enzyme catalase” value is given as “markedly increased”.
